Results taken from publication PMC2794939 (Biochemistry, 2009).

Assays:
Assay type in all cases: cell-based, Influenza virus A/Udorn/72
A/M2-V27A = A/M2-V27A (Influenza A virus, UniProt P0DOF5, V27A); conditions: for inhibition of the mutant: 100 µM
A/M2-V27A/L38F = A/M2-V27A/L38F (Influenza A virus, UniProt P0DOF5, L38F/V27A)
A/M2-L26F = A/M2-L26F (Influenza A virus, UniProt P0DOF5, L26F)
A/M2-V27G = A/M2-V27G (Influenza A virus, UniProt P0DOF5, V27G)
A/M2-A30T = A/M2-A30T (Influenza A virus, UniProt P0DOF5, A30T)
A/M2-S31N = A/M2-S31N (Influenza A virus, UniProt P0DOF5, S31N)
A/M2-G34E = A/M2-G34E (Influenza A virus, UniProt P0DOF5, G34E)

SMILES | inhibition of the mutant (A/M2-V27A) | sensitivity of the double mutant channel (A/M2-V27A/L38F) | % remaining activity after application of 100 μM compound (A/M2-L26F) [%] | IC50 (A/M2-L26F) [mM] | % remaining activity after application of 100 μM compound (A/M2-V27A) [%] | IC50 (A/M2-V27A) [mM] | % remaining activity after application of 100 μM compound (A/M2-V27G) [%] | % remaining activity after application of 100 μM compound (A/M2-A30T) [%] | % remaining activity after application of 100 μM compound (A/M2-S31N) [%] | IC50 (A/M2-S31N) [mM] | % remaining activity after application of 100 μM compound (A/M2-G34E) [%] | inhibition of the mutant (A/M2-S31N)
NC12CC3CC(CC(C3)C1)C2 [Amantadine, amantadine] | less than 10% | not sensitive | – | – | – | – | – | – | – | – | – | –
C1CCC2(CC1)CCN(C1=NCCN1)CC2 [BL-1743, 2-[3-azaspiro([5],[5])undecanol]-2-imidazoline] | less than 10% | not sensitive | 89.2±4.8 | > 10 | 97.4±1.8 | > 10 | 82.9±9.3 | 102±2.3 | 100±0.67 | > 10 | 89.8±6.9 | –
NC1CCC2(CCCCC2)CC1 [Compound 8, spiro[5.5]undecan-3-amine] | – | – | 32.4±3.3 | – | 46.6±6.6 | – | 87.9±6.1 | 98.1±7.0 | 99.1±0.9 | – | – | little inhibition
